# Experimental data from patent US11761045B2, “Splice variants associated with neomorphic SF3B1 mutants” (Eisai R&D Management Co., Ltd., priority 2015, dated 2023).
# Tests used:
# [1] = tested on: Nalm-6 SF3B1^K700E xenograft; assay: Antitumor activity in subcutaneous Nalm-6 SF3B1^K700E xenograft model; assay type: in vivo, CB17-SCID mice
# Protocol: SF3B1 modulator E7107 was tested for antitumor activity in vivo by determining the effect of E7107 in a subcutaneous model of Nalm-6 SF3B1^K700E. […] After this dosing, the animals were monitored until they reached either of the following endpoints: 1) excessive tumor volume measured three times a week (tumor volume calculated by using the ellipsoid formula: […]), or 2) development of any health problem such as paralysis or excessive body weight loss. Partial regression (PR) and complete regression (CR) are defined as 3 consecutive tumor measurements <50% and <30% of starting volume respectively.
# SF3B1^WT = SF3B1^WT (Homo sapiens, UniProt O75533+Q7RTV0); assay: Competitive binding assay (SPA, 3H-probe molecule) with Flag-tag SF3B1 from 293F cells; set-up: expressed in transfected cells; host or cells: 293F cells (Life Technologies), transient transfection with pFLAG-CMV-2-SF3B1; conditions: one nM 3H-probe; Flag-tag SF3B1^WT from transfected 293F cells; read-out: IC50, competitive inhibition of binding of the 3H-probe molecule
# Protocol: (§1) The ability of E7107 to bind both SF3B1^WT and SF3B1^K700E proteins was evaluated in a competitive binding assay using Flag-tag SF3B1 proteins immunoprecipitated with anti-Flag antibody from transiently transfected 293F cells. Batch immobilization of antibody to beads was prepared by incubating 80 μg of anti-SF3B1 antibody (MBL International) and 24 mg anti-mouse PVT SPA scintillation beads (PerkinElmer) for 30 minutes. After centrifugation, the antibody-bead mixture was resuspended in PBS supplemented with PhosSTOP phosphatase inhibitor cocktail (Roche) and complete ULTRA protease inhibitor cocktail (Roche). Nuclear extracts were prepared by diluting 40 mg into a total volume of 16 mL PBS with phosphatase and protease inhibitors, and the mixture was centrifuged. The supernatant was transferred into a clean tube, and the antibody-bead mixture was added and incubated for two hours. The beads were collected by centrifuging, washed twice with PBS+0.1% Triton X-100, and resuspended with 4.8 mL of PBS. 100 μL binding reactions were prepared using slurry and varying concentrations of E7107. […] The mixture was incubated at room temperature for 15 minutes, and luminescence signals were read using a MicroBeta2 Plate Counter (PerkinElmer).
# SF3B1^K700E = SF3B1^K700E (Homo sapiens, UniProt O75533+Q7RTV0, K700E); assay: as above; set-up: expressed in transfected cells; host or cells: 293F cells (Life Technologies), transient transfection with pFLAG-CMV-2-SF3B1 K700E; conditions: one nM 3H-probe; Flag-tag SF3B1^K700E from transfected 293F cells; read-out: IC50, competitive inhibition of binding of the 3H-probe molecule
# Protocol: as §1
# Chain of SF3B1^WT (Q15393 whole entry): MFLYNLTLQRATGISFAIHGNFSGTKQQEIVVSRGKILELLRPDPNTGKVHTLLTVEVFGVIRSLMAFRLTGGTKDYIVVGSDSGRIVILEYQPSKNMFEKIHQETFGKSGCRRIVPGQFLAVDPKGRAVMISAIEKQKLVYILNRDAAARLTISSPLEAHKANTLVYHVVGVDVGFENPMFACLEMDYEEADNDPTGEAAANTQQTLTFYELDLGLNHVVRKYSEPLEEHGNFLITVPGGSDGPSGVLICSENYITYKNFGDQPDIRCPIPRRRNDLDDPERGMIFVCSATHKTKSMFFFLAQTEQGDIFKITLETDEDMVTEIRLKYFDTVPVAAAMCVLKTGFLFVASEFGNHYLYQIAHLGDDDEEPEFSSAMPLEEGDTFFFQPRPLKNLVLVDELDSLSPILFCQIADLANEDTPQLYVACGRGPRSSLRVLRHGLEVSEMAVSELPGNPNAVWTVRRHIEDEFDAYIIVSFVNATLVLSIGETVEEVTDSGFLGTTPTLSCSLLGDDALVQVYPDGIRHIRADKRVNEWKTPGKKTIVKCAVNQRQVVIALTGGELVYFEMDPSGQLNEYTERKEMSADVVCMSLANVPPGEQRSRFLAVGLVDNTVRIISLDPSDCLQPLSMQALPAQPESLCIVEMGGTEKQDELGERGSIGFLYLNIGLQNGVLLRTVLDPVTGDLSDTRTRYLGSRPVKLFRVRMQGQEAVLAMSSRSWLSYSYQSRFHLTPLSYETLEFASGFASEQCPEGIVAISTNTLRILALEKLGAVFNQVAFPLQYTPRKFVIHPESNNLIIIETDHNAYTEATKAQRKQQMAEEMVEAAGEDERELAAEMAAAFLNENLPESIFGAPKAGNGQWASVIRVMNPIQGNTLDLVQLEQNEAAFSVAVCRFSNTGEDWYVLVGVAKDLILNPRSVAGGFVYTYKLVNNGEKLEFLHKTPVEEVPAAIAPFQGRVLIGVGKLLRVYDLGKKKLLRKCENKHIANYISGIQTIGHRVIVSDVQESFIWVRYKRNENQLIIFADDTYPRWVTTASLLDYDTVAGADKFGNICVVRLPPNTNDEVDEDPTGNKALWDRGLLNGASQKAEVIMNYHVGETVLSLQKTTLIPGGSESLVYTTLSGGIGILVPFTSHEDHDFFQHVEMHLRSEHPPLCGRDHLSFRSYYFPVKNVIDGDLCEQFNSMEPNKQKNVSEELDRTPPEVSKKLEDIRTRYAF
# Chain of SF3B1^WT (Q9BWJ5 whole entry, further chain): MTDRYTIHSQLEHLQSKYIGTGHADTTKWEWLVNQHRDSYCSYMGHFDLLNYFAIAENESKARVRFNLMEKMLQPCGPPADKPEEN
# Chain of SF3B1^WT (Q7RTV0 whole entry): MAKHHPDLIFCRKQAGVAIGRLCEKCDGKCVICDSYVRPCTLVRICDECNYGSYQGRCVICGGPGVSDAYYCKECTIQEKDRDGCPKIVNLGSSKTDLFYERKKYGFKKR
# Chain of SF3B1^WT (O75533 whole entry): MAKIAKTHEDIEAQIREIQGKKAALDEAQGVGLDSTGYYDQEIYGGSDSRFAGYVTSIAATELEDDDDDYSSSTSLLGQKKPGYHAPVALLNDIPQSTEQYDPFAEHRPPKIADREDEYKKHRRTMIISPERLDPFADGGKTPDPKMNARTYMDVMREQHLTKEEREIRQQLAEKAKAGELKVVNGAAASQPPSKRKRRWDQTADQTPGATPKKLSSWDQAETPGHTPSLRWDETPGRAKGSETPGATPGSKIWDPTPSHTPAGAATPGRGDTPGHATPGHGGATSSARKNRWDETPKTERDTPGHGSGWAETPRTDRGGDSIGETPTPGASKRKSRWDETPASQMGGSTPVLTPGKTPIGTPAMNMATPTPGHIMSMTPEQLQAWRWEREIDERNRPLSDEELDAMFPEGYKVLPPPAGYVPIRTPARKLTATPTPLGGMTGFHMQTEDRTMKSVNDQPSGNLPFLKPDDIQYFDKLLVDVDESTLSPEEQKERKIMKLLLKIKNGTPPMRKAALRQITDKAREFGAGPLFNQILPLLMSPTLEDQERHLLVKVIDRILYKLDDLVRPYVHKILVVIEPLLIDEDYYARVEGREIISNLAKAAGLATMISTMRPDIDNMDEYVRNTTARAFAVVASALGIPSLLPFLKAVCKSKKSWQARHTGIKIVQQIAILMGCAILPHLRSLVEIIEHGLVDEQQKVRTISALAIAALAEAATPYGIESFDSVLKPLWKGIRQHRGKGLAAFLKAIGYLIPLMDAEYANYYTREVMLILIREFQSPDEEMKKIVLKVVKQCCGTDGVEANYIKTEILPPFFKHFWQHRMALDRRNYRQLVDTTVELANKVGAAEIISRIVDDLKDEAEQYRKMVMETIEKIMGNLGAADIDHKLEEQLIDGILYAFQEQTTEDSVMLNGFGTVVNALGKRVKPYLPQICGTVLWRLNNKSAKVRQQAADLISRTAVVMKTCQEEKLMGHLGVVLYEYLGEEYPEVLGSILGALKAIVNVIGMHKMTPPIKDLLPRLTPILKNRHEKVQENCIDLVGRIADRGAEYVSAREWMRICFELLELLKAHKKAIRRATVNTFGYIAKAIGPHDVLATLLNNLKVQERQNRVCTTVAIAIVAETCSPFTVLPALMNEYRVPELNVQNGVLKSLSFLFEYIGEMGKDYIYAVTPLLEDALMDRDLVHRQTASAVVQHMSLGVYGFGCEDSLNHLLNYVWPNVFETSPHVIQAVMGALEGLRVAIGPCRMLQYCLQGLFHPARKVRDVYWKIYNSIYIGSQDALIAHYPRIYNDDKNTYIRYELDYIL
# Chain of SF3B1^K700E (Q15393 whole entry, stated change not applied): as the sequence (Q15393 whole entry) above
# Chain of SF3B1^K700E (Q9BWJ5 whole entry, further chain): as the sequence (Q9BWJ5 whole entry, further chain) above
# Chain of SF3B1^K700E (Q7RTV0 whole entry): as the sequence (Q7RTV0 whole entry) above
# Chain of SF3B1^K700E (O75533 whole entry K700E): as the sequence (O75533 whole entry) above, with K700E counted along it
structure (smiles),measurement,setting,value
CC[C@H](O)[C@@H](C)[C@H]1O[C@@H]1C[C@@](C)(O)/C=C/C=C(\C)[C@H]1OC(=O)C[C@H](O)CC[C@@](C)(O)[C@@H](OC(=O)N2CCN(C3CCCCCC3)CC2)/C=C/[C@@H]1C [Compound E7107],complete regression (CR),"[1]; 1.25 mg/kg IV QDx5, n=10",all animals (n=10) reached complete regression (CR)
same,"complete regressions (CRs), animals","[1]; 2.5 mg/kg IV QDx5, by day 9",10/10
same,complete regression (CR),[1]; 5 mg/kg IV QDx5,all Nalm-6 SF3B1^K700E xenograft animals reached CR as early as 9 days post treatment
same,mean survival time,[1]; 5 mg/kg IV QDx5,over 250 days
same,tolerability of dose levels,"[1]; 1.25, 2.5 and 5 mg/kg IV QDx5",well tolerated
same,IC50,SF3B1^WT,13 nM
same,IC50,SF3B1^K700E,11 nM
